The subject of assay [1] is two human HCC cell lines (HEP3B and SNU475). Briefly: MTT cell proliferation assay, two human HCC cell lines. It is filed as cell-based. Conditions: PI3K/Akt pathway inhibitors on two human HCC cell lines. (Tetrazolium assays rely on reduction of a dye to a coloured formazan, in cell work by metabolically active cells.)
Protocol: (§1) In-vitro studies: cell lines and cell culture. Human HCC cell lines (HEP3B and SNU475 from ATCC, Cambridge, Mass.) were checked regularly for Mycoplasma contamination using RT-PCR kit while growing in culture with high glucose DMEM media supplemented with 10% FBS and 1% Penicillin/Streptomycin (HEP3), or with RPMI 1640 media supplemented with 10% heat inactivated FBS and 1% Penicillin/Streptomycin (SNU475) in 37° C. humidified incubator in presence of CO2 at 5%.
MTT Cell proliferation assay was performed by plating 5000 cells/well in 6 wells (per condition) of 96 well plates and allowed to adhere for 24 hours, when media was replaced with media±treatment agent for another 24 hours to finally assess cell proliferation according to the manufacturer's instructions (MTT assay, from #ATCC® 30-1010K, Cambridge, Mass.). Digoxin was dissolved in serum free media before addition to cells at designated concentrations.
Assay [2] shares this test system. Briefly: Protein expression by western blotting/confocal microscopy, two human HCC cell lines. It is filed as cell-based. The following applies: two Human HCC cells exposed to digoxin. On the technique in general: A western blot detects proteins with antibodies after separation by electrophoresis.
Protocol: as §1
Confocal microscopy assessment on Immuno-stained cells/liver tissue. For in vitro studies, immunocytochemistry was performed on both human HCC cell lines as previously described. Briefly, the treated for 4 hours cells and the untreated cells were plated on glass coverslips and allowed to reach 70% confluency. […] Next day, slides were incubated with secondary antibodies (Alexa Fluor 488 or 549) and mounted with Vectashield mounting media on slides containing DAPI (Vector Laboratories, Inc., H-1800).
Western Blotting. […] Blocked membranes were incubated with the specific primary/secondary antibodies for protein signals to be detected by the Pierce ECL kit (Thermo Fisher Scientific, Waltham, Mass.), and quantified using ImageJ software.

SMILES strings stand for the structures.

Data on three compounds can be found in US11958915B2, “Methods for treatment and diagnosis of non-alcoholic steatohepatitis and/or hepatocellular carcinoma” (Marshall University Research Corporation, priority 2020, dated 2024).

As to `N#C/C(=C/c1ccc(O)c(O)c1)C(=O)NCc1ccccc1` [AG490], in assay [1], the “cell proliferation (MTT assay)” value is listed as “inhibited cell proliferation”.

On to `CC(C)(C)n1nc(-c2ccc(Cl)cc2)c2c(N)ncnc21` [PP2], for which, in assay [1], the “cell proliferation (MTT assay)” value is reported as “inhibited cell proliferation”.

For `C[C@H]1O[C@@H](O[C@H]2[C@@H](O)C[C@H](O[C@H]3[C@@H](O)C[C@H](O[C@H]4CC[C@@]5(C)[C@H](CC[C@@H]6[C@@H]5C[C@@H](O)[C@]5(C)[C@@H](C7=CC(=O)OC7)CC[C@]65O)C4)O[C@@H]3C)O[C@@H]2C)C[C@H](O)[C@@H]1O` [digoxin], in assay [2], the expression of survivin entry is on record as “increased the expression of survivin”.
